ChEMBL document CHEMBL3880397, “Glucopyranosyloxypyrazole derivatives and use thereof in medicines” (2004)

Legend:
[1] = system: Rattus norvegicus; assay: Reduction in urinary glucose excretion in overnight fasted Sprague-Dawley rat assessed as urinary glucose concentration per 200 g of body weight per 24 hours at 10 /kg, po; assay type: functional
[2] = Oral bioavailability in Sprague-Dawley rat at 10 mg/kg after 15 to 240 mins by LC-MS/MS method; assay type: ADME, organism-based; details: in vivo
[3] = system: Rattus norvegicus; assay: Reduction in urinary glucose excretion in overnight fasted Sprague-Dawley rat assessed as urinary glucose concentration per 200 g of body weight per 24 hours at 3 mg/kg, po; assay type: functional
[4] = system: Rattus norvegicus; assay: Reduction in urinary glucose excretion in overnight fasted Sprague-Dawley rat assessed as urinary glucose concentration per 200 g of body weight per 24 hours at 1 mg/kg, po; assay type: functional
[5] = Oral bioavailability in Sprague-Dawley rat at 10 mg/kg after 15 to 240 mins by HPLC method; assay type: ADME, organism-based; details: in vivo
[6] = Toxicity in ICR mouse assessed as induction of mouse mortality by measuring death incidence at 2000 mg/kg, po measured up to 24 hrs post dose; assay type: organism-based; details: in vivo

| Structure (SMILES) | Activity [1] [mg] | bioavailability [2] [%] | Activity [3] [mg] | Activity [4] [mg] | bioavailability [5] [%] | Activity [6] |
| --- | --- | --- | --- | --- | --- | --- |
| COC(=O)OC[C@H]1O[C@@H](Oc2nn(C(C)C)c(C)c2Cc2ccc(OC(C)C)cc2)[C@H](O)[C@@H](O)[C@@H]1O | 167.3 | 27 | 36.8 | 1.7 |  |  |
| Cc1c(Cc2ccc(OC(C)C)cc2)c(O[C@@H]2O[C@H](COC(=O)OCC(C)C)[C@@H](O)[C@H](O)[C@H]2O)nn1C(C)C |  | 32 |  |  |  |  |
| Cc1[nH]nc(O[C@@H]2O[C@H](CO)[C@@H](O)[C@H](O)[C@H]2O)c1Cc1ccc(OC(C)C)cc1 |  |  |  |  | 0 |  |
| Cc1[nH]nc(O[C@@H]2O[C@H](CO)[C@@H](O)[C@H](O)[C@H]2O)c1Cc1ccc(C(C)C)cc1 |  |  |  |  | 15 |  |
| CSc1ccc(Cc2c(O[C@@H]3O[C@H](CO)[C@@H](O)[C@H](O)[C@H]3O)n[nH]c2C(F)(F)F)cc1 |  |  |  |  | 11 | Non-Toxic |
| CCOC(=O)OC[C@H]1O[C@@H](Oc2nn(C(C)C)c(C)c2Cc2ccc(OC(C)C)cc2)[C@H](O)[C@@H](O)[C@@H]1O [REMOGLIFLOZIN ETABONATE] | 127.5 | 27 | 28.3 | 1.6 |  |  |
